Like-named read-outs stand apart in the source and are kept apart here.
Legend:
[1] = tested on: Pfeiffer cells; experiment: Calcein AM proliferation assay, Pfeiffer cells; type: cell-based, human; conditions: Homo sapiens, Pfeiffer, read-out: Pfeiffer proliferation IC50
[2] = tested on: WSU-DLCL2 cells; experiment: Calcein AM proliferation assay, WSU-DLCL2 cells; type: cell-based, human; conditions: Homo sapiens, read-out: WSU-DLCL2 proliferation IC50
Experimental: By observing under a microscope, it was confirmed that the cells are in good condition. The cells were transferred to a 15 mL centrifuge tube, which was centrifuged at 1000 rpm for 5 minutes.
Gradient dilutions of the compounds in DMSO were performed, and a compound plate with a final concentration of 500-fold was prepared. 1.2 μL of 500× compound was pipetted, transferred to 200 μL medium, and pipetted to mix well to obtain a 3× compound intermediate plate. 50 μL 3× compound is pipetted and added to the cell plate according to the set arrangement.
The cells of the above concentration were inoculated in 96-well plates, 100 μL/well (the number of cells in each well is 10,000). The cell plate was placed in a carbon dioxide incubator for 4 days. The cell plate was taken out. After mixed uniformly, a certain volume of cell suspension was drawn, and stained with Calcein AM. The number of cells in each well was counted with Acumen. According to the number of detected cells, 10,000 cells were re-inoculated in 96-well plates. As above, the compound was added. After placed in a carbon dioxide incubator for 3 days (day 7). The cell plate was taken out again. After mixed uniformly, a certain volume of cell suspension was drawn, stained with Calcein AM. The number of cells in each well was counted with Acumen. The cells were cultured for another 4 days (day 11), and the cell plate was taken out for the third time. After mixed uniformly, a certain volume of cell suspension was drawn, and stained with Calcein AM. The number of cells in each well was counted with Acumen. According to the number of detected cells, 10,000 cells were re-inoculated in 96-well plates. As above, the compound was added. […] After Calcein AM staining, the number of the cells was counted to obtain the final count result. The data of day 14 was processed to obtain the corresponding half-inhibitory concentration (IC50).
Using GraphPad Prism 5 software, a non-linear regression model was used to draw the S-type dose-survival rate curve and to calculate the IC50 value.

[3] = tested on: Karpas 422 cells; experiment: Calcein AM proliferation assay, Karpas 422 cells; type: cell-based, human; conditions: Homo sapiens, read-out: Karpas422 proliferation IC50
[4] = target: wild-type EZH2 (Homo sapiens, UniProt Q15910); experiment: Radiometric assay of activity on wild-type PRC2 EZH2
Chain of wild-type EZH2 (Q15910 whole entry): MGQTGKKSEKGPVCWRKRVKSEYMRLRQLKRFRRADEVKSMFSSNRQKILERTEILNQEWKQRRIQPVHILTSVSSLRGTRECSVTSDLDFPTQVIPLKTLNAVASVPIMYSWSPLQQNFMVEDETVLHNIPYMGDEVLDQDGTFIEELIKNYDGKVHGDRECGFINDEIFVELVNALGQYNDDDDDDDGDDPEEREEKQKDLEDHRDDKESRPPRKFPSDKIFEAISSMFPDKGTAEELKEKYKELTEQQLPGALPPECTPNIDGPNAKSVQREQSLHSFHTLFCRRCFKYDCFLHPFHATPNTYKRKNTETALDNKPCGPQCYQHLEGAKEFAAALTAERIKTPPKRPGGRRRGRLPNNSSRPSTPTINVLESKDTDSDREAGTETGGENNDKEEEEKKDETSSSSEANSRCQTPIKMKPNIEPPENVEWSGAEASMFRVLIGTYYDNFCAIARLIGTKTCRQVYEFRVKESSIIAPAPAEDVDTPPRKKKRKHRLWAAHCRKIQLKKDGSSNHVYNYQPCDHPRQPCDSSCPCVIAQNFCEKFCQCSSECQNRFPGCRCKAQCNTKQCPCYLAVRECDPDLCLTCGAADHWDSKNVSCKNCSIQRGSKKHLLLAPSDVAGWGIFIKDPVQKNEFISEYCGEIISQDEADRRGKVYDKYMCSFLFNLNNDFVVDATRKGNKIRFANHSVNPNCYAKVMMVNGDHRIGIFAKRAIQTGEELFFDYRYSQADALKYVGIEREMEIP
Chain of wild-type EZH2 (O75530 whole entry partner): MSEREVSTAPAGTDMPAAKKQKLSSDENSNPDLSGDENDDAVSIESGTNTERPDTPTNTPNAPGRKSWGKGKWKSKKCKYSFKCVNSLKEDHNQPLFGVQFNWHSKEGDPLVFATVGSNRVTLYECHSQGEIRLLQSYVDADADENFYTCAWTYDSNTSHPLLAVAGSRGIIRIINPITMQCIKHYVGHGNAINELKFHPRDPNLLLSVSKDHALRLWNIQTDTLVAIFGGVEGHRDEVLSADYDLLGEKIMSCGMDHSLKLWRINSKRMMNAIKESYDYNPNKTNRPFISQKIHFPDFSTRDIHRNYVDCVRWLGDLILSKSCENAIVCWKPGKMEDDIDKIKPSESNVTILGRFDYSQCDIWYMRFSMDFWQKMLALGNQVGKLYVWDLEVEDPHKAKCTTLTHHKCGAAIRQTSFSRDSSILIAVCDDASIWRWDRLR
Chain of wild-type EZH2 (Q15022 whole entry partner): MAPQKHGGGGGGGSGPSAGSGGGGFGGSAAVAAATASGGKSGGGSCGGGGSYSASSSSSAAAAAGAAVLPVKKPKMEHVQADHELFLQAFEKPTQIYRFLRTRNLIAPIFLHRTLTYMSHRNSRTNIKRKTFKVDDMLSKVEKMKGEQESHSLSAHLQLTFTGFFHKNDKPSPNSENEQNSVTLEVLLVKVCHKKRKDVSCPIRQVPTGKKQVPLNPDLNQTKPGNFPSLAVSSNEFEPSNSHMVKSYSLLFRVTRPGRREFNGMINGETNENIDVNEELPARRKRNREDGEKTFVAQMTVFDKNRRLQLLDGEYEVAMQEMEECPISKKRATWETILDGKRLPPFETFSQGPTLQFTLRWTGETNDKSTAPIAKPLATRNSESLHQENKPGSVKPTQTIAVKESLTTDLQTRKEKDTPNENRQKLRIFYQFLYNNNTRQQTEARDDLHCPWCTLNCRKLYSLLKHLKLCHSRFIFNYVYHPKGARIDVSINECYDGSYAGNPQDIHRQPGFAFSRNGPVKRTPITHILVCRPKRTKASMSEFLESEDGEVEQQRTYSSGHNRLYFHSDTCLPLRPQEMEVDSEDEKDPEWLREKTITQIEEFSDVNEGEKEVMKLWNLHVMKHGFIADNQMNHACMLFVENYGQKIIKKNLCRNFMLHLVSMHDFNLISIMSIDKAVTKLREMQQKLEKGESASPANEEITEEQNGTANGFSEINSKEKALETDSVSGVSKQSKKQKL
Chain of wild-type EZH2 (Q09028 whole entry partner): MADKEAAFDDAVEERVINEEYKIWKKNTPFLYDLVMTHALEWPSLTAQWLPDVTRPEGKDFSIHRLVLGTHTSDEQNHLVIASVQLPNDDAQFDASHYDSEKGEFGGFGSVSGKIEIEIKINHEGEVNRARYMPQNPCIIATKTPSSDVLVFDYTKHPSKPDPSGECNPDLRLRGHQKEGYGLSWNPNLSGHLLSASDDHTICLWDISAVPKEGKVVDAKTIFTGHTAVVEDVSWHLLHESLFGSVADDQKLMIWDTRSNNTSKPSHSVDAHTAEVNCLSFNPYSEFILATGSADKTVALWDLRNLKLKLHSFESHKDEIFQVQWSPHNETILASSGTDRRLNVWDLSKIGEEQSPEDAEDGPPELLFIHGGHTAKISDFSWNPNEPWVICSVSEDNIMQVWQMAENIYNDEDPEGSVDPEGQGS
Experimental: 10 microliters (μL) of the compound of the test example and wild-type EZH2 were added to each well. After being incubated at room temperature for 15 minutes, peptides and [3H]-labeled methyl donor S-adenosylmethionine (SAM) were added. After reacting at room temperature for 1 hour (h), cold SAM was added to terminate the reaction. 25 μl reaction solution was transferred to the scintillation plate. After incubating for 1 hour (h) at room temperature, the plate was washed three times with deionized water and 0.1% Tween 20. The value was read with a PerkinElmer liquid scintillation/luminescence counter, and the half inhibitory concentration (IC50) of the compound was calculated with the Prism 5 software (GraphPad Prism 5).

[5] = Pharmacokinetics experiment in rats; type: in vivo; conditions: rat, plasma, male SD rats; for bioavailability: oral 20 mg/kg vs intravenous 4 mg/kg, read-out: Bioavailability (F %); for AUC: read-out: Area under the curve (AUC); for half-life: read-out: Half life (T1/2) (converted); for Cmax: read-out: Blood drug level (Cmax)
Experimental: Male SD rats weighing 200-300 g and 8 weeks old were used as experimental animals. […] The pharmacokinetic behavior of the compound of the present invention in rats was studied, and the pharmacokinetic characteristics thereof were evaluated.
A certain amount of the compound was weighed, dissolved in 0.10% tween for vortex and ultrasound, and then 0.5% sodium carboxymethyl cellulose (CMC-Na) solution was added to prepare a uniform solution.
The above-mentioned compounds were applied intravenously and orally to rats at a dose of 4 mg/kg and a dose of 20 mg/kg, respectively. At 0.083 h, 0.25 h, 0.5 h, 1.0 h, 2.0 h, 4.0 h, 6.0 h, 8.0 h, 12.0 h, and 24.0 h after application, 0.2 mL of blood was collected from the orbit, and placed in an anticoagulant tube, which was centrifuged at 6000 rpm for 10 minutes at 4° C. The plasma was separated and stored at −80° C.

[6] = target: T1, Mutant EZH2 (Y641F) (Homo sapiens, UniProt Q15910, Y641F); experiment: AlphaLISA assay on mutant PRC2 complex, EZH2 Y641F; type: biochemical
T1 construct: purchased BPS 51004
T1 sequence (Q15910 whole entry Y641F): as the sequence (Q15910 whole entry) above, with Y641F counted along it
T1 sequence (O75530 whole entry partner): as the sequence (O75530 whole entry partner) above
T1 sequence (Q15022 whole entry partner): as the sequence (Q15022 whole entry partner) above
T1 sequence (Q09028 whole entry partner): as the sequence (Q09028 whole entry partner) above
T1 sequence (Q6ZN18 whole entry partner): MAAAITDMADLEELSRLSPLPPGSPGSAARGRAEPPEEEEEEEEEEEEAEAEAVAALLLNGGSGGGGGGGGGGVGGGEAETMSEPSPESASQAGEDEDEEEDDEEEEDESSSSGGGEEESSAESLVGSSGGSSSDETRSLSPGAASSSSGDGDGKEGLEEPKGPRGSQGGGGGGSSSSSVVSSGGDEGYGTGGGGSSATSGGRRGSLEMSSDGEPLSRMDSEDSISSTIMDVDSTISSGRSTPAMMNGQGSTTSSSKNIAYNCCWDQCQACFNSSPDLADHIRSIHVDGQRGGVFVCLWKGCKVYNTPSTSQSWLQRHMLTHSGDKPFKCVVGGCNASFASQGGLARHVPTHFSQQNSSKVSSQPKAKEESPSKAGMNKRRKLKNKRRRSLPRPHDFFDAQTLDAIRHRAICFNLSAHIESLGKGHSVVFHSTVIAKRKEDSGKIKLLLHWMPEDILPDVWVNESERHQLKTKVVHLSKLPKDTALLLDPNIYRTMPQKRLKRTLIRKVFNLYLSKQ
Experimental: Detection Method: AlphaLISA
(§1) Finally, 15 μl detection solution mixture was added under low light, and incubated at room temperature for 60 minutes, and read the value.

[7] = target: T2, Mutant EZH2 (Y641N) (Homo sapiens, UniProt Q15910, Y641N); experiment: AlphaLISA assay on mutant PRC2 complex, EZH2 Y641N; type: biochemical
T2 construct: purchased BPS 51004
T2 sequence (Q15910 whole entry Y641N): as the sequence (Q15910 whole entry) above, with Y641N counted along it
T2 sequence (O75530 whole entry partner): as the sequence (O75530 whole entry partner) above
T2 sequence (Q15022 whole entry partner): as the sequence (Q15022 whole entry partner) above
T2 sequence (Q09028 whole entry partner): as the sequence (Q09028 whole entry partner) above
T2 sequence (Q6ZN18 whole entry partner): as the sequence (Q6ZN18 whole entry partner) above
Experimental: Detection Method: AlphaLISA
as §1

[8] = target: T3, Mutant EZH2 (A677G) (Homo sapiens, UniProt Q15910, A677G); experiment: AlphaLISA assay on mutant PRC2 complex, EZH2 A677G; type: biochemical
T3 construct: purchased BPS 51004
T3 sequence (Q15910 whole entry A677G): as the sequence (Q15910 whole entry) above, with A677G counted along it
T3 sequence (O75530 whole entry partner): as the sequence (O75530 whole entry partner) above
T3 sequence (Q15022 whole entry partner): as the sequence (Q15022 whole entry partner) above
T3 sequence (Q09028 whole entry partner): as the sequence (Q09028 whole entry partner) above
T3 sequence (Q6ZN18 whole entry partner): as the sequence (Q6ZN18 whole entry partner) above
Experimental: Detection Method: AlphaLISA
as §1

[9] = WSUDLCL2, day 14 data, Calcein AM staining
[10] = KARPAS-422, day 14 data, Calcein AM staining
[11] = day 14 data, Calcein AM staining

| IC50 [3, 10] | IC50 [4] | SMILES | IC50 [2, 9] | IC50 [1, 11] | also measured |
| --- | --- | --- | --- | --- | --- |
| – | – | CCN(c1cc(-c2ccc(C3(C#N)CCOCC3)cc2)cc(C(=O)NCc2c(C)cc(C)[nH]c2=O)c1C)C1CCOCC1 [Compound 1, 4′-(4-cyanotetrahydro-2H-pyran-4-yl)-N-((4,6-dimethyl-2-carbonyl-1,2-dihydropyridin-3-yl)methyl)-5-(ethyl(tetrahydro-2H-pyran-4-yl)amino)-4-methyl-[1,1′-biphenyl]-3-formamide] | – | – | IC50 ([1]; […]): 1.34 nM; IC50 ([2]; WSUDLCL2, […]): 2.87 nM; IC50 ([3]; KARPAS-422, […]): 2.15 nM |
| 1.08 nM | – | CCN(c1cc(-c2ccc(C3(C(=O)O)CCOCC3)cc2)cc(C(=O)NCc2c(C)cc(C)[nH]c2=O)c1C)C1CCOCC1 [Compound 2, 4-(3′-(((4,6-dimethyl-2-carbonyl-1,2-dihydropyridin-3-yl)methyl)carbamoyl)-5′-(ethyl(tetrahydro-2H-pyran-4-yl)amino)-4′-methyl-[1,1′-biphenyl]-4-yl)tetrahydro-2H-pyran-4-carboxylic Acid] | 1.58 nM | – | – |
| 2.5 nM | – | CCN(c1cc(-c2ccc(C3(CO)CCOCC3)cc2)cc(C(=O)NCc2c(C)cc(C)[nH]c2=O)c1C)C1CCOCC1 [Compound 3, N-((4,6-dimethyl-2-carbonyl-1,2-dihydropyridin-3-yl)methyl)-5-(ethyl(tetrahydro-2H-pyran-4-yl)amino)-4′-(4-(hydroxymethyl)tetrahydro-2H-pyran-4-yl)-4-methyl-[1,1′-biphenyl]-3-carboxamide] | 2.68 nM | 1.67 nM | – |
| 3.23 nM | – | CCN(c1cc(-c2ccc(C3(COC)CCOCC3)cc2)cc(C(=O)NCc2c(C)cc(C)[nH]c2=O)c1C)C1CCOCC1 [Compound 5, N-((4,6-dimethyl-2-carbonyl-1,2-dihydropyridin-3-yl)methyl)-5-(ethyl(tetrahydro-2H-pyran-4-yl)amino)-4′-(4-(methoxymethyl)tetrahydro-2H-pyran-4-yl)-4-methyl-[1,1′-biphenyl]-3-carboxamide] | 5.85 nM | 2.84 nM | – |
| 4.15 nM | 0.52 nM | CCN(c1cc(-c2ccc3c(c2)CCC3N2CCOCC2)cc(C(=O)NCc2c(OC)cc(C)[nH]c2=O)c1C)C1CCOCC1 (centres unmarked) [Compound 6, 3-(ethyl(tetrahydro-2H-pyran-4-yl)amino)-N-((4-methoxy-6-methyl-2-oxo-1,2-dihydropyridin-3-yl)methyl)-2-methyl-5-(1-morpholino-2,3-dihydro-1H-inden-5-yl)benzamide] | 5.13 nM | 3.2 nM | bioavailability [5]: 33.3%; AUC ([5]; intravenous dosing 4 mg/kg): 966 ng·h/mL; half-life ([5]; intravenous dosing 4 mg/kg): 1.12 h; AUC ([5]; oral dosing 20 mg/kg): 1610 ng·h/mL; Cmax ([5]; oral dosing 20 mg/kg): 456 ng/mL |
| 4.15 nM | 0.9 nM | CCN(c1cc(-c2ccc(C3(C#N)CCOCC3)cc2)c(Cl)c(C(=O)NCc2c(C)cc(C)[nH]c2=O)c1C)C1CCOCC1 [Compound 9, 2-chloro-4′-(4-cyanotetrahydro-2H-pyran-4-yl)-N-((4,6-dimethyl-2-oxo-1,2-dihydropyridin-3-yl)methyl)-5-(ethyl(tetrahydro-2H-pyran-4-yl)amino)-4-methyl-[1,1′-biphenyl]-3-formamide] | 4.68 nM | 3.47 nM | IC50 [6]: 0.48 nM |
| 0.58 nM | 0.63 nM | CCN(c1cc(-c2ccc3c(c2)CCC3N2CCOCC2)c(Cl)c(C(=O)NCc2c(C)cc(C)[nH]c2=O)c1C)C1CCOCC1 (centres unmarked) [Compound 10, 2-chloro-N-((4,6-dimethyl-2-oxo-1,2-dihydropyridin-3-yl)methyl)-5-(ethyl(tetrahydro-2H-pyran-4-yl)amino)-6-methyl-3-(1-morpholino-2,3-dihydro-1H-inden-5-yl)benzamide] | 1.17 nM | 0.38 nM | IC50 [7]: 0.3 nM; IC50 [6]: 0.58 nM; bioavailability [5]: 30.6%; AUC ([5]; intravenous dosing 4 mg/kg): 937 ng·h/mL; half-life ([5]; intravenous dosing 4 mg/kg): 1.64 h; AUC ([5]; oral dosing 20 mg/kg): 1440 ng·h/mL; Cmax ([5]; oral dosing 20 mg/kg): 405 ng/mL |
| 1.87 nM | 0.6 nM | CCN(c1cc(-c2ccc3c(c2)CCC3N2CCOCC2)c(F)c(C(=O)NCc2c(C)cc(C)[nH]c2=O)c1C)C1CCOCC1 (centres unmarked) [Compound 11, N-((4,6-dimethyl-2-oxo-1,2-dihydropyridin-3-yl)methyl)-3-(ethyl (tetrahydro-2H-pyran-4-yl)amino)-6-fluoro-2-methyl-5-(1-morpholino-2,3-dihydro-1H-inden-5-yl)benzamide] | 2.92 nM | 1.08 nM | IC50 [6]: 0.54 nM; bioavailability [5]: 26.6%; AUC ([5]; intravenous dosing 4 mg/kg): 954 ng·h/mL; half-life ([5]; intravenous dosing 4 mg/kg): 1.34 h; AUC ([5]; oral dosing 20 mg/kg): 1270 ng·h/mL; Cmax ([5]; oral dosing 20 mg/kg): 489 ng/mL |
| 3.76 nM | – | CCN(c1cc(-c2ccc3c(c2)CCC3N2CCOCC2)cc(C(=O)NCc2c(C)cc(C)[nH]c2=O)c1C)C1CCOC(C)C1 (centres unmarked) [Compound 14, N-((4,6-dimethyl-2-oxo-1,2-dihydropyridin-3-yl)methyl)-3-((2-methyltetrahydro-2H-pyran-4-yl)(ethyl)amino)-2-methyl-5-(1-morpholino-2,3-dihydro-1H-inden-5-yl)benzamide] | 4.15 nM | 2.89 nM | – |
| 2.6 nM | – | CCN(c1cc(N2Cc3ccc(N(C)C)cc3C2)cc(C(=O)NCc2c(C)cc(C)[nH]c2=O)c1C)C1CCOCC1 [Compound 17, N-((4,6-dimethyl-2-oxo-1,2-dihydropyridin-3-yl)methyl)-5-(5-(dimethylamino)isoindolin-2-yl)-3-(ethyl(tetrahydro-2H-pyran-4-yl)amino)-2-methylbenzamide] | 3.71 nM | 1.27 nM | – |
| 3.21 nM | 0.61 nM | C=CC(=O)Nc1ccc2c(c1)CN(c1cc(C(=O)NCc3c(C)cc(C)[nH]c3=O)c(C)c(N(CC)C3CCOCC3)c1)C2 [Compound 19, 5-(5-acrylamidoisoindolin-2-yl)-N-((4,6-dimethyl-2-oxo-1,2-dihydropyridin-3-yl)methyl)-3-(ethyl(tetrahydro-2H-pyran-4-yl)amino)-2-methylbenzamide] | 7.75 nM | 2.34 nM | IC50 [7]: 0.08 nM |
| 3.62 nM | – | CCN(c1cc(N2Cc3ccc(CN4CCOCC4)cc3C2)cc(C(=O)NCc2c(C)cc(C)[nH]c2=O)c1C)C1CCOCC1 [Compound 20, N-((4,6-dimethyl-2-oxo-1,2-dihydropyridin-3-yl)methyl)-3-(ethyl (tetrahydro-2H-pyran-4-yl)amino)-2-methyl-5-((5-morpholinomethyl)isoindolin-2-yl)benzamide] | 7.84 nM | 2.85 nM | – |
| 3.67 nM | 0.71 nM | CCN(c1ccc2c(c1)CN(c1cc(C(=O)NCc3c(C)cc(C)[nH]c3=O)c(C)c(N(CC)C3CCOCC3)c1)C2)C1CCOCC1 [Compound 22, N-((4,6-dimethyl-2-oxo-1,2-dihydropyridin-3-yl)methyl)-3-(ethyl (tetrahydro-2H-pyran-4-yl)amino)-5-(5-(ethyl(tetrahydro-2H-pyran-4-yl)amino)isoindolin-2-yl)-2-methylbenzamide] | 6.38 nM | 1.87 nM | – |
| 4.09 nM | 0.89 nM | CCN(c1cc(N2Cc3ccc(NC4CCOCC4)cc3C2)cc(C(=O)NCc2c(C)cc(C)[nH]c2=O)c1C)C1CCOCC1 [Compound 23] | 6.48 nM | 4.36 nM | IC50 [8]: 0.66 nM; IC50 [7]: 0.5 nM |
| 4.47 nM | 0.87 nM | CCN(c1cc(-c2cc3c(cc2F)C(N2CCOCC2)CC3)cc(C(=O)NCc2c(C)cc(C)[nH]c2=O)c1C)C1CCOCC1 (centres unmarked) [Compound 24] | 5.28 nM | 2.96 nM | IC50 [8]: 0.61 nM |
| 6.47 nM | – | CCN(c1cc(-c2cc(F)c3c(c2)CCC3N2CCOCC2)cc(C(=O)NCc2c(C)cc(C)[nH]c2=O)c1C)C1CCOCC1 (centres unmarked) [Compound 26] | 9.42 nM | 5.86 nM | – |
| – | – | CCN(c1cc(-c2ccc3c(c2)C(C)(C)CC3N2CCOCC2)cc(C(=O)NCc2c(C)cc(C)[nH]c2=O)c1C)C1CCOCC1 (centres unmarked) [Compound 27] | 1.71 nM | – | – |

| SMILES | IC50 [3, 10] | IC50 [4] | IC50 [2, 9] | IC50 [1, 11] | also measured |
| --- | --- | --- | --- | --- | --- |
| CCN(c1cc(-c2ccc3c(c2)CCC3N2CCOCC2)cc(C(=O)NCc2c(C)cc(C)[nH]c2=O)c1C)C1CC(C)OC(C)C1 (centres unmarked) [Compound 13, N-((4,6-dimethyl-2-oxo-1,2-dihydropyridin-3-yl)methyl)-3-((2,6-dimethyltetrahydro-2H-pyran-4-yl)(ethyl)amino)-2-methyl-5-(1-morpholino-2,3-di hydro-1H-inden-5-yl)benzamide] | – | 0.95 nM | – | – | IC50 ([1]; […]): 0.87 nM; IC50 ([2]; WSUDLCL2, […]): 1.28 nM; IC50 [6]: 0.81 nM; IC50 ([3]; KARPAS-422, […]): 0.95 nM; bioavailability [5]: 34.5%; AUC ([5]; intravenous dosing 4 mg/kg): 977 ng·h/mL; half-life ([5]; intravenous dosing 4 mg/kg): 1.34 h; AUC ([5]; oral dosing 20 mg/kg): 1690 ng·h/mL; Cmax ([5]; oral dosing 20 mg/kg): 403 ng/mL |
